Where “and” joins values, the source holds several entries; their conditions need not be identical. Identical values can stand only once. Inconclusive results and toxic doses are left out. How the source made its calls: active means survival T/C of 150% or more; inactive means T/C below 125% in these data. Square brackets hold non-standard residues; d marks the D form. Peptide text beside a SMILES is read from it. * marks the point of attachment. Cbz = O=C(OCc1ccccc1)*; Nva = CCC[CH](N)C(=O)O
Tested on: P388 leukemia ip, CD2F1 mice, survival T/C
Experiment: NCI In Vivo Anticancer Drug Screen. Data for tumor model P388 Leukemia (intraperitoneal) in CD2F1 (CDF1) mice
Conditions: endpoint: median survival time, higher = longer survival
Outline: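 Mice carrying the transplanted tumor received test compound or vehicle. Survival was recorded in each group, and the value is the treated-group measurement divided by that of the vehicle-treated control group.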

[1] = dose: 50.0 mg/kg/injection, schedule: Q01DX005 (ip), vehicle: Klucel (hydroxypropylcellulose) (HPC)
[2] = dose: 100.0 mg/kg/injection, schedule: Q01DX005 (ip), vehicle: Klucel (hydroxypropylcellulose) (HPC)
[3] = dose: 200.0 mg/kg/injection, schedule: Q01DX005 (ip), vehicle: Klucel (hydroxypropylcellulose) (HPC)
[4] = dose: 50.0 mg/kg/injection, schedule: Q01DX009 (ip), vehicle: saline
[5] = dose: 100.0 mg/kg/injection, schedule: Q01DX009 (ip), vehicle: saline
[6] = dose: 50.0 mg/kg/injection, schedule: Q01DX005 (ip), vehicle: saline with Tween-80
[7] = dose: 100.0 mg/kg/injection, schedule: Q01DX005 (ip), vehicle: saline with Tween-80
[8] = dose: 200.0 mg/kg/injection, schedule: Q01DX005 (ip), vehicle: saline with Tween-80
[9] = dose: 50.0 mg/kg/injection, schedule: Q01DX009 (ip), vehicle: saline with Tween-80
[10] = dose: 100.0 mg/kg/injection, schedule: Q01DX009 (ip), vehicle: saline with Tween-80
[11] = dose: 25.0 mg/kg/injection, schedule: Q01DX009 (ip), vehicle: saline with Tween-80
[12] = dose: 50.0 mg/kg/injection, schedule: Q01DX009 (ip), vehicle: Klucel (hydroxypropylcellulose) (HPC)
[13] = dose: 100.0 mg/kg/injection, schedule: Q01DX009 (ip), vehicle: Klucel (hydroxypropylcellulose) (HPC)

Measured: T/C

O=C(O)c1ccccc1Nc1ccccc1[N+](=O)[O-]
inactive: dose: 50.0 mg/kg/injection, schedule: Q04DX003 (ip), vehicle: saline 94 % of control | dose: 100.0 mg/kg/injection, schedule: Q04DX003 (ip), vehicle: saline 99 % of control | dose: 200.0 mg/kg/injection, schedule: Q04DX003 (ip), vehicle: saline 102 % of control | dose: 400.0 mg/kg/injection, schedule: Q04DX003 (ip), vehicle: saline 105 % of control

C=C(C)/C(=C/C(=O)OCC)Sc1ccccc1
inactive: dose: 100.0 mg/kg/injection, schedule: Q04DX003 (ip), vehicle: Klucel (hydroxypropylcellulose) (HPC) 106 % of control | dose: 200.0 mg/kg/injection, schedule: Q04DX003 (ip), vehicle: Klucel (hydroxypropylcellulose) (HPC) 106 % of control | dose: 400.0 mg/kg/injection, schedule: Q04DX003 (ip), vehicle: Klucel (hydroxypropylcellulose) (HPC) 102 % of control

Cc1cc2c(cc1C)NC1C(=O)C(c3cccc([N+](=O)[O-])c3)OC1=N2 (stereo not drawn)
inactive: [1] 111 % of control | [2] 90 % of control | [3] 87 % of control

CCOC(=O)C1=C(NC(C)=O)Sc2ccccc2C1
inactive: [4] 94 % of control | [5] 103 % of control | dose: 200.0 mg/kg/injection, schedule: Q01DX009 (ip), vehicle: saline 92 % of control

O=C(O)c1ccccc1-c1ccc2ccccc2c1
inactive: [6] 94 % of control | [7] 105 % of control | [8] 110 % of control

O=C(CCN1C(=O)c2ccccc2C1=O)c1cnc[nH]1
inactive: dose: 17.5 mg/kg/injection, schedule: Q01DX005 (ip), vehicle: Klucel (hydroxypropylcellulose) (HPC) 105 % of control | dose: 35.0 mg/kg/injection, schedule: Q01DX005 (ip), vehicle: Klucel (hydroxypropylcellulose) (HPC) 90 % of control | dose: 70.0 mg/kg/injection, schedule: Q01DX005 (ip), vehicle: Klucel (hydroxypropylcellulose) (HPC) 98 % of control

Cc1cc(C)n(C2=NS(=O)(=O)c3ccccc3N2c2ccccc2)n1
inactive: dose: 100.0 mg/kg/injection, schedule: Q01DX001 (ip), vehicle: saline with Tween-80 102 % of control | dose: 200.0 mg/kg/injection, schedule: Q01DX001 (ip), vehicle: saline with Tween-80 98 % of control | dose: 400.0 mg/kg/injection, schedule: Q01DX001 (ip), vehicle: saline with Tween-80 97 % of control

CSc1nc(C#N)c(/N=C\N(C)C)s1
inactive: [1] 100 % of control | [2] 99 % of control | [3] 100 % of control

COc1ccc2c(c1)C(=O)OC2
inactive: [9] 102 % of control | [10] 101 % of control | dose: 200.0 mg/kg/injection, schedule: Q01DX009 (ip), vehicle: saline with Tween-80 99 % of control

Cc1ccc(S(=O)(=O)N=S(C)(C)=O)cc1
inactive: dose: 0.1 mg/kg/injection, schedule: Q01DX009 (ip), vehicle: saline with Tween-80 104 % of control | dose: 0.2 mg/kg/injection, schedule: Q01DX009 (ip), vehicle: saline with Tween-80 105 % of control and 108 % of control | dose: 0.39 mg/kg/injection, schedule: Q01DX009 (ip), vehicle: saline with Tween-80 99 % of control and 101 % of control | dose: 0.78 mg/kg/injection, schedule: Q01DX009 (ip), vehicle: saline with Tween-80 107 % of control | dose: 0.79 mg/kg/injection, schedule: Q01DX009 (ip), vehicle: saline with Tween-80 98 % of control | dose: 1.56 mg/kg/injection, schedule: Q01DX009 (ip), vehicle: saline with Tween-80 108 % of control and 120 % of control and 96 % of control | dose: 6.25 mg/kg/injection, schedule: Q01DX009 (ip), vehicle: saline with Tween-80 100 % of control and 105 % of control and 91 % of control | dose: 12.5 mg/kg/injection, schedule: Q01DX009 (ip), vehicle: saline with Tween-80 104 % of control and 88 % of control | [11] 97 % of control

O=C(Nc1ccc(NC(=O)Nc2ccc(C3=NCCN3)cc2)cc1)Nc1ccc(C2=NCCN2)cc1
inactive: dose: 110.0 mg/kg/injection, schedule: Q01DX010 (ip), vehicle: saline 118 % of control | dose: 165.0 mg/kg/injection, schedule: Q01DX010 (ip), vehicle: saline 118 % of control

CCCC(NC(=O)OCc1ccccc1)C(=O)NC(CCSC)C(N)=O (stereo not drawn) (Cbz-[Nva]-Met-NH2; configuration not given here)
inactive: [1] 106 % of control | [2] 97 % of control | [3] 88 % of control

CCOc1ccc(N=NC2C(=O)N(c3cccc(Cl)c3Cl)C(=S)N(c3ccccc3)C2O)cc1 (stereo not drawn)
inactive: dose: 100.0 mg/kg/injection, schedule: Q01DX001 (ip), vehicle: Klucel (hydroxypropylcellulose) (HPC) 99 % of control | dose: 200.0 mg/kg/injection, schedule: Q01DX001 (ip), vehicle: Klucel (hydroxypropylcellulose) (HPC) 100 % of control | dose: 400.0 mg/kg/injection, schedule: Q01DX001 (ip), vehicle: Klucel (hydroxypropylcellulose) (HPC) 97 % of control

Cc1ccc(C)c2c1CCC2C (stereo not drawn)
inactive: [11] 101 % of control and 110 % of control | [9] 111 % of control and 116 % of control | [10] 104 % of control and 114 % of control

O=c1[nH]c(=O)n(Cl)c(=O)n1Cl
inactive: [12] 116 % of control | [13] 99 % of control

C=C(C)C1CC2(C)C(C)CC(OC(=O)/C(C)=C\C)CC2C(OC(=O)/C(C)=C\C)C1O (stereo not drawn)
inactive: dose: 12.5 mg/kg/injection, schedule: Q01DX009 (ip), vehicle: Klucel (hydroxypropylcellulose) (HPC) 86 % of control | dose: 25.0 mg/kg/injection, schedule: Q01DX009 (ip), vehicle: Klucel (hydroxypropylcellulose) (HPC) 96 % of control | [12] 96 % of control | [13] 100 % of control

COc1c2occc2c(N=Cc2ccccn2)c2ccc(=O)oc12
inactive: dose: 6.25 mg/kg/injection, schedule: Q01DX005 (ip), vehicle: Klucel (hydroxypropylcellulose) (HPC) 97 % of control | dose: 12.5 mg/kg/injection, schedule: Q01DX005 (ip), vehicle: Klucel (hydroxypropylcellulose) (HPC) 97 % of control | dose: 25.0 mg/kg/injection, schedule: Q01DX005 (ip), vehicle: Klucel (hydroxypropylcellulose) (HPC) 95 % of control | [1] 90 % of control

CC(=Nc1ccc(S(=O)(=O)c2ccc(N=C(C)N3CCCCC3)cc2)cc1)N1CCCCC1
inactive: [6] 100 % of control | [7] 97 % of control | [8] 88 % of control

OCCOCCN1CCN(C(c2ccccc2)c2ccccc2)CC1
inactive: [4] 103 % of control | [5] 103 % of control

— PubChem BioAssay AID330 (DTP/NCI, 2004)
